The values below come from US20110288052A1, “NOVEL COMPOUNDS, PHARMACEUTICAL COMPOSITIONS CONTAINING SAME, AND METHODS OF USE FOR SAME” (priority 2008, published 2011).

A word on the IC50: it is the point on the concentration scale where inhibition reaches its midpoint.

Experiment [1] has as its target T1, Human FAS purified from ZR-75-1 human breast cancer cells (Homo sapiens, UniProt P49327).
T1 construct: Human FAS was purified from cultured ZR-75-1 human breast cancer cells; endogenous in cells; host or cells: ZR-75-1 human breast cancer cells (ATCC); enzyme purified by hypotonic lysis, PEG precipitation and Mono Q anion exchange
The experiment is described as follows: FAS enzymatic activity (malonyl-CoA dependent NADPH oxidation). The note with it: (SB). It is filed as biochemical. The protocol:
Purification of FAS from ZR-75-1 Human Breast Cancer Cells. Human FAS was purified from cultured ZR-75-1 human breast cancer cells obtained from the American Type Culture Collection. The procedure, adapted from Linn et al., 1981, and Kuhajda et al., 1994, utilizes hypotonic lysis, successive polyethyleneglycol (PEG) precipitations, and anion exchange chromatography. ZR-75-1 cells are cultured at 37° C. with 5% CO2 in RPMI culture medium with 10% fetal bovine serum, penicillin and streptomycin.
Ten T150 flasks of confluent cells are lysed with 1.5 ml lysis buffer (20 mM Tris-HCl, pH 7.5, 1 mM EDTA, 0.1 mM phenylmethanesulfonyl fluoride (PMSF), 0.1% Igepal CA-630) and bounce homogenized on ice for 20 strokes. […] FAS protein concentration is determined using the Coomassie Plus Protein Assay Reagent (Pierce) according to manufacturer's specifications using BSA as a standard. […]
Measurement of FAS Enzymatic Activity and Determination of the IC50 of the Compounds FAS activity is measured by monitoring the malonyl-CoA dependent oxidation of NADPH spectrophotometrically at OD340 in 96-well plates (Dils et al and Arslanian et al, 1975). […]
The assay is performed on a Molecular Devices SpectraMax Plus Spectrophotometer. […] The plate is read again as above with the kinetic protocol to measure the malonyl-CoA dependent NADPH oxidation. […]

For experiment [2], the system named is Staphylococcus aureus (ATCC # 29213). Put plainly: Broth microdilution antimicrobial assay, S. aureus. The format is cell-based. Here is the method: Antimicrobial Properties A broth microdilution assay is used to assess the antimicrobial activity of the compounds. Compounds are tested at twofold serial dilutions, and the concentration that inhibits visible growth (OD600 at 10% of control) is defined as the MIC. Microorganisms tested include Staphylococcus aureus (ATCC # 29213), Enterococcus faecalis (ATCC # 29212), Pseudomonas aerpginosa (ATCC # 27853), and Escherichia coli (ATCC # 25922). The assay is performed in two growth media, Mueller Hinton Broth and Trypticase Soy Broth.
A blood (Tsoy/5% sheep blood) agar plate is inoculated from frozen stocks maintained in T soy broth containing 10% glycerol and incubated overnight at 37° C. Colonies are suspended in sterile broth so that the turbidity matches the turbidity of a 0.5 McFarland standard. The inoculum is diluted 1:10 in sterile broth (Mueller Hinton or Trypticase soy) and 195 μl is dispensed per well of a 96-well plate. The compounds to be tested, dissolved in DMSO, are added to the wells in 5 μl volume at the following concentrations: 25, 12.5, 6.25, 3.125, 1.56 and 0.78 μg/ml in duplicate. Additional concentrations are tested if required. 5 μl of DMSO added to duplicate wells are the vehicle control. Serial dilutions of positive control compounds, vancomycin (E. faecalis and S. aureus) and tobramycin (E. coli and P. aerpginosa), are included in each run.
After 24 hours of incubation at 37° C., plates are read at OD600 on a Molecular Devices SpectraMax Plus Spectrophotometer. Average OD600 values are computed using SOFTmax Pro Software (Molecular Devices) and MIC values are determined by linear regression analysis using Prism version 3.02 (Graph Pad Software, San Diego). The MIC is defined as the concentration of compound required to produce an OD600 reading equivalent to 10% of the vehicle control reading.
(In general: Dilution methods test growth across graded concentrations, often in twofold steps.)

[3] abbreviates: ATCC29213, Mueller Hinton Broth, read-out: SA/MH (MIC).
The mark [4] stands for this setting: ATCC29213, Trypticase Soy Broth, read-out: SA/Tsoy (MIC).

In brackets after ≈: the same amount, converted by molar mass. Where two headings read alike, the source gives them in different places.

T1 sequence (P49327 2-2511 limits assumed): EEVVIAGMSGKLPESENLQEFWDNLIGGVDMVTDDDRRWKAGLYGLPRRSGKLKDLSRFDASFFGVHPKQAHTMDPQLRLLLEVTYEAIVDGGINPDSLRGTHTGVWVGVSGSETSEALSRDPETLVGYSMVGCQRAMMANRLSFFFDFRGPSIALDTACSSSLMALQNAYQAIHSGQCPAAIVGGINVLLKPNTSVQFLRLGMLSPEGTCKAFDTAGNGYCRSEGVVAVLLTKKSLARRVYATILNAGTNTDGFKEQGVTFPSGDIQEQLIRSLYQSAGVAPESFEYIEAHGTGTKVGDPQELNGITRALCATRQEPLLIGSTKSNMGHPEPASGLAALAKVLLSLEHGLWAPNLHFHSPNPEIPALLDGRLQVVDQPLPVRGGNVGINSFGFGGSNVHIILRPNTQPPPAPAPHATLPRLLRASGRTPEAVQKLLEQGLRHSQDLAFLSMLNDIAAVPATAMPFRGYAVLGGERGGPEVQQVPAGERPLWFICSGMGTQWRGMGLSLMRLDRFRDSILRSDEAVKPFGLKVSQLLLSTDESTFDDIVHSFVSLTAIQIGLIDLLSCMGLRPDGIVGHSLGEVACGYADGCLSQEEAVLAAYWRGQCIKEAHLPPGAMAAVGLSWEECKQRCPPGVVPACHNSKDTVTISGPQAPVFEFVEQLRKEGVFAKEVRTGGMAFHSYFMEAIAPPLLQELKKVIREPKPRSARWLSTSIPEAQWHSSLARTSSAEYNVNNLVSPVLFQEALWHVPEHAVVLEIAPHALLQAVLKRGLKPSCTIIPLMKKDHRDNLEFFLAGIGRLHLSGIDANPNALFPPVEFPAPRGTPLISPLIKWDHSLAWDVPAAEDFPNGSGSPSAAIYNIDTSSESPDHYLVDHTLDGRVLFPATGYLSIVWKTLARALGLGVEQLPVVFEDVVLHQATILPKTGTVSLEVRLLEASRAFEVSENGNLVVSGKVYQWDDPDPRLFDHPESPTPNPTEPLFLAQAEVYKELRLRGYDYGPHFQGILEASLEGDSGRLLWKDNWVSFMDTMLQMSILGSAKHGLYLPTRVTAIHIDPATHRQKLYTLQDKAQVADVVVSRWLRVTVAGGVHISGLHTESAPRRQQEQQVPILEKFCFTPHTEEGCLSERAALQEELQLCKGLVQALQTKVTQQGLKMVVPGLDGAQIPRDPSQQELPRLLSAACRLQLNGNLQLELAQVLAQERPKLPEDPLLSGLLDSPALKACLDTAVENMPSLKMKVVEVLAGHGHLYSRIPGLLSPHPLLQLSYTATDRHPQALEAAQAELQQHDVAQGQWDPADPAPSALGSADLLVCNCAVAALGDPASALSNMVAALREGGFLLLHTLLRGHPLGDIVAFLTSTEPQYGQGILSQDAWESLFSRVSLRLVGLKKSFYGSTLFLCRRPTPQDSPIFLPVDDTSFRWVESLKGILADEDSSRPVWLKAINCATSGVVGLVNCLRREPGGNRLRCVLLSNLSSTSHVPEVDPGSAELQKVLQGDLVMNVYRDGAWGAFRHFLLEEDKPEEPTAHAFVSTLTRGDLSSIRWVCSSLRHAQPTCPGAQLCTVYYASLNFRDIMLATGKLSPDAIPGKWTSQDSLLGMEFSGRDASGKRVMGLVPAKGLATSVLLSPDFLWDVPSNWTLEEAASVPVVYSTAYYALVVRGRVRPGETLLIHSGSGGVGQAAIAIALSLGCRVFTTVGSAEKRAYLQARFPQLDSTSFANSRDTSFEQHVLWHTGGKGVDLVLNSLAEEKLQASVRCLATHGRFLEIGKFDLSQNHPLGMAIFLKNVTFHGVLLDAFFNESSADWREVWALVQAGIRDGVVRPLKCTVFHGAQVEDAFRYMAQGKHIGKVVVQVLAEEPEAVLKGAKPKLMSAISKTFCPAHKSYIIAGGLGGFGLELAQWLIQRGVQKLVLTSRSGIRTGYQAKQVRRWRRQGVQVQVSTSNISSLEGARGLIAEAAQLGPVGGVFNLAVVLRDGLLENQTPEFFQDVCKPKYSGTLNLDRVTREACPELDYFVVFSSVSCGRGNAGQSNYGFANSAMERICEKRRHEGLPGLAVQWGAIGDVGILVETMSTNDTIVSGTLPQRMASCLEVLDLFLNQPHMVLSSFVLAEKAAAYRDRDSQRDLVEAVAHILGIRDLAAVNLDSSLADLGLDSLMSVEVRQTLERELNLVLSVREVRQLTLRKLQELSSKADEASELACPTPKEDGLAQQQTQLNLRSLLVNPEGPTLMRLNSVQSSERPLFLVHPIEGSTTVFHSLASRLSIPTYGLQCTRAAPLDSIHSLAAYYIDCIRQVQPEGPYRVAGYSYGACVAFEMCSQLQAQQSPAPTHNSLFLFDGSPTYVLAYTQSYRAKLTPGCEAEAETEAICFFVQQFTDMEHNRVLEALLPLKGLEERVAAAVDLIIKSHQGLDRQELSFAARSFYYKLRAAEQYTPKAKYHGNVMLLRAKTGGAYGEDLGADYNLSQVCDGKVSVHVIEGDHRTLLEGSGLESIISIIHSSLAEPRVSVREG

Consider `CCCCCCCCC1(C)SC(=O)C=C1OCC(=O)Nc1ccc(Cl)cc1Cl` (stereo not drawn), for which the “FAS (IC50)” value in experiment [1] was “Neg (SB)”.
In experiment [1], `CCCCCCCCC1(C)SC(=O)C=C1OCC(=O)Nc1ccc(Cl)cc1` (stereo not drawn) showed an IC50 of 266 µM. Besides, the MIC in experiment [2] (setting [3]) is 6 µg/mL (≈ 14.6 µM); in experiment [2] (setting [4]) it was 3 µg/mL (≈ 7.32 µM).
As for `CCCCCCCCC1(C)OC(=O)C=C1OCC(=O)Nc1ccc(Cl)cc1` (stereo not drawn), the MIC in experiment [2] (setting [3]) came to 6 µg/mL (≈ 15.2 µM); in experiment [2] (setting [4]), 3 µg/mL (≈ 7.62 µM).
